Assay results from patent US20230365592A1 (Agios Pharmaceuticals, Inc., priority 2022, published 2023).

The compounds below were run against T1, human PAH with the R408W mutation (Homo sapiens, UniProt P00439, R408W) (assay: Cell Based Phenylalanine Flux Assay). Conditions: A375 cells expressing human R408W PAH; 24 hrs compound incubation; 13C-Tyrosine by LC-MS; average where tested multiple times; read-out: AC50.
T1 construct: expressed in transfected cells
T1 sequence (P00439 1-452 R408W): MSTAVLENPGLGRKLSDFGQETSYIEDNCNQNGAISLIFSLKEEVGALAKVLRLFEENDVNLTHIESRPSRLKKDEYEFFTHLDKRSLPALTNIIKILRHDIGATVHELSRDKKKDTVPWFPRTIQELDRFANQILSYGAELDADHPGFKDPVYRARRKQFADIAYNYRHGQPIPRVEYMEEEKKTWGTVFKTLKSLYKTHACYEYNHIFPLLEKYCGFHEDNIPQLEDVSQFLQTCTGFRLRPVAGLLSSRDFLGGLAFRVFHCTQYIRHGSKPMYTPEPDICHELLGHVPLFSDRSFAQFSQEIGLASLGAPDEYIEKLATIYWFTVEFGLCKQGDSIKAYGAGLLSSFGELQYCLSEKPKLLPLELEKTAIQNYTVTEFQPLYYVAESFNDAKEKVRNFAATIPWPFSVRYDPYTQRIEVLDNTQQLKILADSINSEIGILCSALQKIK
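Further: after compound treatment, cells received sepiapterin plus isotope-labelled Phenylalanine for 4 hours, then labelled Tyrosine in the medium was quantified, 10-point 2-fold dilution series run in duplicate.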

Compound | AC50 [nM]
Cc1ccc2cc([C@@H]3c4nc[nH]c4CCN3C(=O)c3nnc(C4CC4)o3)nn2c1 [Example 966, (S)-(5-cyclopropyl-1,3,4-oxadiazol-2-yl)(4-(6-methylpyrazolo[1,5-a]pyridin-2-yl)-6,7-dihydro-1H-imidazo[4,5-c]pyridin-5(4H)-yl)methanone] | 500 to 1000
Cc1ccc2cc([C@H]3c4nc[nH]c4CCN3C(=O)c3nnc(C4CC4)o3)nn2c1 [Example 967, (R)-(5-cyclopropyl-1,3,4-oxadiazol-2-yl)(4-(6-methylpyrazolo[1,5-a]pyridin-2-yl)-6,7-dihydro-1H-imidazo[4,5-c]pyridin-5(4H)-yl)methanone] | > 5000
CC(C)(F)c1nnc(C(=O)N2CCc3[nH]cnc3[C@@H]2c2cc3cccc(Cl)n3n2)o1 [Example 968, (R)-(4-(7-chloropyrazolo[1,5-a]pyridin-2-yl)-6,7-dihydro-1H-imidazo[4,5-c]pyridin-5(4H)-yl)(5-(2-fluoropropan-2-yl)-1,3,4-oxadiazol-2-yl)methanone] | 1000 to 5000
COc1cccn2nc([C@H]3c4nc[nH]c4CCN3C(=O)c3nnc(C(C)(C)F)o3)cc12 [Example 970, (R)-(5-(2-fluoropropan-2-yl)-1,3,4-oxadiazol-2-yl)(4-(4-methoxypyrazolo[1,5-a]pyridin-2-yl)-6,7-dihydro-1H-imidazo[4,5-c]pyridin-5(4H)-yl)methanone] | > 5000
COc1cccn2nc([C@@H]3c4nc[nH]c4CCN3C(=O)c3nnc(C(C)(C)F)o3)cc12 [Example 971, (S)-(5-(2-fluoropropan-2-yl)-1,3,4-oxadiazol-2-yl)(4-(4-methoxypyrazolo[1,5-a]pyridin-2-yl)-6,7-dihydro-1H-imidazo[4,5-c]pyridin-5(4H)-yl)methanone] | 500 to 1000
Cc1c(-c2nnc(C(=O)N3CCc4[nH]cnc4[C@H]3c3cc4ccccn4n3)o2)cnn1C [Example 972, (S)-(5-(1,5-dimethyl-1H-pyrazol-4-yl)-1,3,4-oxadiazol-2-yl)(4-(pyrazolo[1,5-a]pyridin-2-yl)-6,7-dihydro-1H-imidazo[4,5-c)pyridin-5(4H)-yl)methanone] | < 500
Cc1c(-c2nnc(C(=O)N3CCc4[nH]cnc4[C@@H]3c3cc4ccccn4n3)o2)cnn1C [Example 973, (R)-(5-(1,5-dimethyl-1H-pyrazol-4-yl)-1,3,4-oxadiazol-2-yl)(4-(pyrazolo[1,5-a]pyridin-2-yl)-6,7-dihydro-1H-imidazo[4,5-c]pyridin-5(4H)-yl)methanone] | > 5000
O=C(c1nnc(-c2ccccn2)o1)N1CCc2[nH]cnc2[C@@H]1c1cc2cccc(F)n2n1 [Example 974, (R)-(4-(7-fluoropyrazolo[1,5-a]pyridin-2-yl)-6,7-dihydro-1H-imidazo[4,5-c]pyridin-5(4H)-yl)(5-(pyridin-2-yl)-1,3,4-oxadiazol-2-yl)methanone] | 1000 to 5000
O=C(c1nnc(-c2ccccn2)o1)N1CCc2[nH]cnc2[C@H]1c1cc2cccc(F)n2n1 [Example 975, (S)-(4-(7-fluoropyrazolo[1,5-a]pyridin-2-yl)-6,7-dihydro-1H-imidazo[4,5-c]pyridin-5(4H)-yl)(5-(pyridin-2-yl)-1,3,4-oxadiazol-2-yl)methanone] | < 500
Cn1ccc(-c2nnc(C(=O)N3CCc4[nH]cnc4[C@H]3c3cc4cccc(Cl)n4n3)o2)n1 [Example 976, (S)-(4-(7-chloropyrazolo[1,5-a]pyridin-2-yl)-6,7-dihydro-1H-imidazo[4,5-c)pyridin-5(4H)-yl)(5-(1-methyl-1H-pyrazol-3-yl)-1,3,4-oxadiazol-2-yl)methanone] | < 500
Cn1ccc(-c2nnc(C(=O)N3CCc4[nH]cnc4[C@@H]3c3cc4cccc(Cl)n4n3)o2)n1 [Example 977, (R)-(4-(7-chloropyrazolo[1,5-a]pyridin-2-yl)-6,7-dihydro-1H-imidazo(4,5-c]pyridin-5(4H)-yl)(5-(1-methyl-1H-pyrazol-3-yl)-1,3,4-oxadiazol-2-yl)methanone] | > 5000
O=C(c1nnc(-c2cnccn2)o1)N1CCc2[nH]cnc2[C@@H]1c1cc2cccc(Cl)n2n1 [Example 978, (R)-(4-(7-chloropyrazolo[1,5-a]pyridin-2-yl)-6,7-dihydro-1H-imidazo[4,5-c]pyridin-5(4H)-yl)(5-(pyrazin-2-yl)-1,3,4-oxadiazol-2-yl)methanone] | 1000 to 5000
O=C(c1nnc(C2CC2)o1)N1CCc2[nH]cnc2[C@H]1c1cc2c(C(F)F)cccn2n1 [Example 980, (S)-(5-cyclopropyl-1,3,4-oxadiazol-2-yl)(4-(4-(difluoromethyl)pyrazolo[1,5-a]pyridin-2-yl)-6,7-dihydro-1H-imidazo[4,5-c]pyridin-5(4H)-yl)methanone] | < 500
O=C(c1nnc(C2CC2)o1)N1CCc2[nH]cnc2[C@@H]1c1cc2c(C(F)F)cccn2n1 [Example 981, (R)-(5-cyclopropyl-1,3,4-oxadiazol-2-yl)(4-(4-(difluoromethyl)pyrazolo[1,5-a]pyridin-2-yl)-6,7-dihydro-1H-imidazo[4,5-c]pyridin-5(4H)-yl)methanone] | 1000 to 5000
O=C(c1nnc(-c2ncccc2F)o1)N1CCc2[nH]cnc2[C@H]1c1cc2cccc(Cl)n2n1 [Example 982, (S)-(4-(7-chloropyrazolo[1,5-a]pyridin-2-yl)-6,7-dihydro-1H-imidazo[4,5-c]pyridin-5(4H)-yl)(5-(3-fluoropyridin-2-yl)-1,3,4-oxadiazol-2-yl)methanone] | < 500
O=C(c1nnc(-c2ncccc2F)o1)N1CCc2[nH]cnc2[C@@H]1c1cc2cccc(Cl)n2n1 [Example 983, (R)-(4-(7-chloropyrazolo[1,5-a]pyridin-2-yl)-6,7-dihydro-1H-imidazo[4,5-c]pyridin-5(4H)-yl)(5-(3-fluoropyridin-2-yl)-1,3,4-oxadiazol-2-yl)methanone] | > 5000
O=C(c1nnc(-c2cnn(C(F)F)c2)o1)N1CCc2[nH]cnc2[C@@H]1c1cc2cccc(F)n2n1 [Example 985, (R)-(5-(1-(difluoromethyl)-1H-pyrazol-4-yl)-1,3,4-oxadiazol-2-yl)(4-(7-fluoropyrazolo[1,5-a]pyridin-2-yl)-6,7-dihydro-1H-imidazo[4,5-c]pyridin-5(4H)-yl)methanone] | 1000 to 5000
CC(C)(F)c1nnc(C(=O)N2CCc3[nH]cnc3[C@@H]2c2cc3cccc(F)n3n2)o1 [Example 986, (R)-(5-(2-fluoropropan-2-yl)-1,3,4-oxadiazol-2-yl)(4-(7-fluoropyrazolo[1,5-a]pyridin-2-yl)-6,7-dihydro-1H-imidazo[4,5-c]pyridin-5(4H)-yl)methanone] | 1000 to 5000
CC(C)(F)c1nnc(C(=O)N2CCc3[nH]cnc3[C@H]2c2cc3cccc(F)n3n2)o1 [Example 987, (S)-(5-(2-fluoropropan-2-yl)-1,3,4-oxadiazol-2-yl)(4-(7-fluoropyrazolo[1,5-a]pyridin-2-yl)-6,7-dihydro-1H-imidazo[4,5-c]pyridin-5(4H)-yl)methanone] | 500 to 1000
Cc1cccn2nc([C@@H]3c4nc[nH]c4CCN3C(=O)c3nnc(-c4cnn(C)c4C)o3)cc12 [Example 988, (S)-(5-(1,5-dimethyl-1H-pyrazol-4-yl)-1,3,4-oxadiazol-2-yl)(4-(4-methylpyrazolo[1,5-a]pyridin-2-yl)-6,7-dihydro-1H-imidazo[4,5-c)pyridin-5(4H)-yl)methanone] | < 500
Cc1cccn2nc([C@H]3c4nc[nH]c4CCN3C(=O)c3nnc(-c4cnn(C)c4C)o3)cc12 [Example 989, (R)-(5-(1,5-dimethyl-1H-pyrazol-4-yl)-1,3,4-oxadiazol-2-yl)(4-(4-methylpyrazolo[1,5-a]pyridin-2-yl)-6,7-dihydro-1H-imidazo[4,5-c]pyridin-5(4H)-yl)methanone] | 1000 to 5000
CC(C)(O)c1nc(Cl)c(C(=O)N2CCc3[nH]cnc3[C@H]2c2cc3ccccn3n2)o1 [Example 990, (S)-(4-chloro-2-(2-hydroxypropan-2-yl)oxazol-5-yl)(4-(pyrazolo[1,5-a]pyridin-2-yl)-6,7-dihydro-1H-imidazo[4,5-c]pyridin-5(4H)-yl)methanone] | 500 to 1000
Cc1nc(C(C)(C)C#N)oc1C(=O)N1CCc2[nH]cnc2[C@H]1c1cc2ccccn2n1 [Example 992, (S)-2-methyl-2-(4-methyl-5-(4-(pyrazolo[1,5-a]pyridin-2-yl)-4,5,6,7-tetrahydro-1H-imidazo[4,5-c]pyridine-5-carbonyl)oxazol-2-yl)propanenitrile] | 500 to 1000
O=C(c1oc(C2(O)CC2)nc1C(F)F)N1CCc2[nH]cnc2[C@H]1c1cc2ccccn2n1 [Example 994, (S)-(4-(difluoromethyl)-2-(1-hydroxycyclopropyl)oxazol-5-yl)(4-(pyrazolo[1,5-a]pyridin-2-yl)-6,7-dihydro-1H-imidazo[4,5-c]pyridin-5(4H)-yl)methanone] | < 500
Cc1nc(C(C)(C)O)oc1C(=O)N1CCc2[nH]cnc2[C@H]1c1cc2c(F)cccn2n1 [Example 1000, (S)-(4-(4-fluoropyrazolo[1,5-a]pyridin-2-yl)-6,7-dihydro-1H-imidazo[4,5-c]pyridin-5(4H)-yl)(2-(2-hydroxypropan-2-yl)-4-methyloxazol-5-yl)methanone] | 500 to 1000
O=C(c1ocnc1C(F)F)N1CCc2[nH]cnc2[C@@H]1c1cc2c(C(F)(F)F)cccn2n1 [Example 1003, (R)-(4-(difluoromethyl)oxazol-5-yl)(4-(4-(trifluoromethyl)pyrazolo[1,5-a]pyridin-2-yl)-6,7-dihydro-1H-imidazo[4,5-c]pyridin-5(4H)-yl)methanone] | 500 to 1000
